Data: patent US20250049798A1, “WEE1 PROTEIN KINASE DEGRADATION AGENT AND USE THEREOF” (HANGZHOU GLUBIO PHARMACEUTICAL CO. LTD., priority 2021, published 2025)

Target: HiBiT tagged Wee1 (Homo sapiens, UniProt P30291)
Assay: Wee1 protein degradation assay (HiBiT assay)
Type: cell-based
Conditions: engineered HT-1080 cells, 20 hours; for Dmax: maximum percentage of Wee1 degradation, read-out: HiBiT Wee1: Dmax

Sequence of HiBiT tagged Wee1 (P30291 whole entry): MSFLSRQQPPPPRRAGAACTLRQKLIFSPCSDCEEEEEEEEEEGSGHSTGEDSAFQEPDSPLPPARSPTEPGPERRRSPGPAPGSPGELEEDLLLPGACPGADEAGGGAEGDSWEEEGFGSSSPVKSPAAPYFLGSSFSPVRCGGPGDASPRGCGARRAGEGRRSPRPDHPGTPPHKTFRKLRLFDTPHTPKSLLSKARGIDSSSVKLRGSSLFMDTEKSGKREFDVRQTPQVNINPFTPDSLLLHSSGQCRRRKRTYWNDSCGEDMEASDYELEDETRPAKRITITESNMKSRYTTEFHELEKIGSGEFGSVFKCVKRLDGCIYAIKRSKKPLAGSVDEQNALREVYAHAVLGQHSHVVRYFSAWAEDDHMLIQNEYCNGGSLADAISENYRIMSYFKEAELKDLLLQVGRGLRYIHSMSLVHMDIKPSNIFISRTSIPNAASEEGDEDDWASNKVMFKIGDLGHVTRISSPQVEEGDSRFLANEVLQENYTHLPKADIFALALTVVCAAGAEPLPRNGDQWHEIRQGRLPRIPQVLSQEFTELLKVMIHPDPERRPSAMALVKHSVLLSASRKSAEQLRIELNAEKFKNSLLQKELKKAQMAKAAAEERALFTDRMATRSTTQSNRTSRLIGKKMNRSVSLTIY

Row | SMILES | DC50 | Dmax
1 | O=C1CCC(N2C(=O)c3ccc(N4CC(N5CCC(c6ccc(Nc7ncc8c(=O)n(-c9c(Cl)cccc9Cl)c9nccn9c8n7)cc6)CC5)C4)cc3C2=O)C(=O)N1 (stereo not drawn) [Compound 42] | > 1000 nM | 50 to 75%
2 | C=CCn1c(=O)c2cnc(Nc3ccc(N4CCC(N5CCN(c6cc7c(cc6F)C(=O)N(C6CCC(=O)NC6=O)C7=O)CC5)CC4)cc3)nc2n1-c1cccc(C(C)(C)O)n1 (stereo not drawn) [Compound 78] | 100 to 1000 nM | 50 to 75%
3 | O=C1CCC(N2C(=O)c3ccc(N4CCC(CN5CCc6ccc(Nc7ncc8c(=O)n(-c9c(Cl)cccc9Cl)c9nccn9c8n7)cc6C5)CC4)cc3C2=O)C(=O)N1 (stereo not drawn) [Compound 5] | > 1000 nM | < 50%
4 | C=CCn1c(=O)c2cnc(Nc3ccc(N4CCC(CC(=O)Nc5cccc6c(N7CCC(=O)NC7=O)nn(C)c56)CC4)cc3)nc2n1-c1ccc2c(n1)[C@@](O)(CC)CC2 [Compound 202] | > 1000 nM | < 50%
5 | O=C1CCC(N2C(=O)c3ccc(N4CCC(CCN5CCC(c6ccc(Nc7ncc8c(=O)n(-c9c(Cl)cccc9Cl)c9nccn9c8n7)cc6)CC5)CC4)cc3C2=O)C(=O)N1 (stereo not drawn) [Compound 15] | 100 to 1000 nM | 50 to 75%
6 | COc1ccc(C(=O)N2CCC(CN3CCC(c4ccc(Nc5ncc6c(=O)n(-c7c(Cl)cccc7Cl)c7nccn7c6n5)cc4)CC3)CC2)cc1N1CCC(=O)NC1=O [Compound 26] | > 1000 nM | < 50%
7 | COc1ccc(C(=O)N2CCC(OC3CCN(Cc4ccc(Nc5ncc6c(=O)n(-c7c(Cl)cccc7Cl)c7nccn7c6n5)cc4)CC3)CC2)cc1N1CCC(=O)NC1=O [Compound 60] | > 1000 nM | < 50%
8 | C=CCn1c(=O)c2cnc(Nc3ccc(C4CCN(C5CCN(c6ccc7c(c6)C(=O)N(C6CCC(=O)NC6=O)C7=O)C5)CC4)cc3)nc2n1-c1cccc(C(C)(C)O)n1 (stereo not drawn) [Compound 39] | 100 to 1000 nM | 50 to 75%
9 | O=C1CCC(N2C(=O)c3ccc(N4CCC(CCN5CCN(c6ccc(Nc7ncc8c(=O)n(-c9c(Cl)cccc9Cl)c9nccn9c8n7)cc6)CC5)CC4)cc3C2=O)C(=O)N1 (stereo not drawn) [Compound 4] | > 1000 nM | < 50%
10 | C=CCn1c(=O)c2cnc(Nc3ccc(N4CCN(CCC5CCN(C(=O)c6ccc(OC)c(N7CCC(=O)NC7=O)c6)CC5)CC4)cc3)nc2n1-c1cccc(C(C)(C)O)n1 [Compound 29] | > 1000 nM | < 50%
11 | C=CCn1c(=O)c2cnc(Nc3ccc(C4CCN(CC5CCN(c6ccc(C(=O)NC7CCC(=O)NC7=O)nc6)CC5)CC4)cc3)nc2n1-c1cccc(C(C)(C)O)n1 (stereo not drawn) [Compound 35] | > 1000 nM | < 50%
12 | COc1ccc(C(=O)N2CCC3(CCN(Cc4ccc(Nc5ncc6c(=O)n(-c7c(Cl)cccc7Cl)c7nccn7c6n5)cc4)CC3)CC2)cc1N1CCC(=O)NC1=O [Compound 59] | > 1000 nM | < 50%
13 | C=CCn1c(=O)c2cnc(Nc3ccc(N4CCC(CN5CCN(c6cccc7c(N8CCC(=O)NC8=O)nn(C)c67)CC5)CC4)cc3)nc2n1-c1cccc(C(C)(C)O)n1 [Compound 118] | 100 to 1000 nM | 50 to 75%
14 | C=CCn1c(=O)c2cnc(Nc3ccc(N4CCC(CN5CCN(c6ccc(NC7CCC(=O)NC7=O)cc6F)CC5)CC4)cc3)nc2n1-c1ccc2c(n1)[C@](C)(O)CC2 (single isomer, unassigned) [Compound 120] | < 100 nM | 50 to 75%
15 | C=CCn1c(=O)c2cnc(Nc3ccc(N4CCC(CN5CCN(c6cccc7c6n(C)c(=O)n7C6CCC(=O)NC6=O)CC5)CC4)cc3)nc2n1-c1cccc(C(C)(C)O)n1 (stereo not drawn) [Compound 90] | < 100 nM | > 75%
16 | C[C@@]1(O)CC/C=C\Cn2c(=O)c3cnc(Nc4ccc(N5CCN(CC6CCN(c7ccc(NC8CCC(=O)NC8=O)cc7F)CC6)CC5)cc4)nc3n2-c2cccc1n2 (single isomer, unassigned) [Compound 142] | < 100 nM | 50 to 75%
17 | C=CCn1c(=O)c2cnc(Nc3ccc(N4CCC(CN5CCN(c6ccc7c(N8CCC(=O)NC8=O)nn(C)c7c6)CC5)CC4)cc3)nc2n1-c1ccc2c(n1)[C@](C)(O)CC2 [Compound 127] | < 100 nM | > 75%
18 | C=CCn1c(=O)c2cnc(Nc3ccc(N4CCN(CC5CCN(c6ccc(NC7CCC(=O)NC7=O)cc6F)CC5)[C@H](COC)C4)cc3)nc2n1-c1ccc2c(n1)[C@@](O)(CC)CC2 (stereo partly drawn) [Compound 206] | < 100 nM | > 75%
19 | C=CCn1c(=O)c2cnc(Nc3ccc(N4CCN(CC5CCN(c6ccc(NC7CCC(=O)NC7=O)cc6F)CC5)CC4)cc3)nc2n1-c1ccc2c(n1)[C@@](C)(O)CC2 (stereo partly drawn) [Compound 113] | < 100 nM | > 75%

Continued, values first:

Row | DC50 | Dmax | SMILES
20 | < 100 nM | > 75% | C=CCn1c(=O)c2cnc(Nc3ccc(N4CCN(CC5CCN(c6ccc(NC7CCC(=O)NC7=O)cc6F)CC5)CC4)cc3)nc2n1-c1ccc2c(n1)[C@@](O)(CC)CCC2 (single isomer, unassigned) [Compound 188]
21 | < 100 nM | > 75% | C=CCn1c(=O)c2cnc(Nc3ccc(C4CCN(CC5CCN(c6ccc(NC7CCC(=O)NC7=O)cc6F)CC5)CC4)cc3)nc2n1-c1cccc(C(C)(C)O)n1 (stereo not drawn) [Compound 73]
22 | < 100 nM | > 75% | O=C1CCC(Nc2ccc(N3CCN(CC4CCN(c5ccc(Nc6ncc7c(=O)n(-c8c(Cl)cccc8Cl)c8nccn8c7n6)cc5)CC4)CC3)c(F)c2)C(=O)N1 (stereo not drawn) [Compound 94]
23 | < 100 nM | > 75% | C=CCn1c(=O)c2cnc(Nc3ccc(N4CCN(CC5CCN(c6ccc(NC7CCC(=O)NC7=O)cc6F)CC5)CC4)c(C)c3)nc2n1-c1ccc2c(n1)[C@](C)(O)CC2 (stereo partly drawn) [Compound 130]
24 | < 100 nM | 50 to 75% | C=CCn1c(=O)c2cnc(Nc3ccc(C4CCN(CC5CCN(c6ccc(NC7CCC(=O)NC7=O)cn6)CC5)CC4)cc3)nc2n1-c1cccc(C(C)(C)O)n1 (stereo not drawn) [Compound 84]
25 | < 100 nM | > 75% | C=CCn1c(=O)c2cnc(Nc3ccc(N4CCC(CN5CCN(c6ccc(OC7CCC(=O)NC7=O)cc6F)CC5)CC4)cc3)nc2n1-c1cccc(C(C)(C)O)n1 (stereo not drawn) [Compound 149]
26 | < 100 nM | > 75% | C=CCn1c(=O)c2cnc(Nc3ccc(N4CCN(CC5CCN(c6ccc(NC7CCC(=O)NC7=O)cc6F)CC5)CC4)c(Cl)c3)nc2n1-c1ccc2c(n1)[C@@](O)(CC)CC2 (stereo partly drawn) [Compound 167]
27 | < 100 nM | > 75% | C=CCn1c(=O)c2cnc(Nc3ccc(N4CCC(N5CC[C@@H](c6ccc(NC7CCC(=O)NC7=O)cc6F)C(F)(F)C5)CC4)cc3)nc2n1-c1ccc2c(n1)[C@@](O)(CC)CC2 (single isomer, unassigned) [Compound 184]
28 | < 100 nM | 50 to 75% | C=CCn1c(=O)c2cnc(Nc3ccc(N4CCC(CN5CCC(c6ccc7c(N8CCC(=O)NC8=O)nn(C)c7c6)C(F)(F)C5)CC4)cc3)nc2n1-c1ccc2c(n1)[C@@](O)(CC)CC2 (stereo partly drawn) [Compound 160]
29 | < 100 nM | 50 to 75% | C=CCn1c(=O)c2cnc(Nc3ccc(N4CCN(CCNc5ccc6c(c5)C(=O)N(C5CCC(=O)NC5=O)C6=O)CC4)cc3)nc2n1-c1cccc(C(C)(C)O)n1 (stereo not drawn) [Compound 11]
30 | < 100 nM | > 75% | C=CCn1c(=O)c2cnc(Nc3ccc(N4CCC(N5CC[C@H](c6ccc(NC7CCC(=O)NC7=O)cc6F)C(F)(F)C5)CC4)cc3)nc2n1-c1ccc2c(n1)[C@@](O)(CC)CC2 (single isomer, unassigned) [Compound 183]
31 | < 100 nM | > 75% | C=CCn1c(=O)c2cnc(Nc3ccc(N4CCC(CN5CCN(c6ccc(NC7CCC(=O)NC7=O)cc6Cl)CC5)CC4)cc3)nc2n1-c1cccc(C(C)(C)O)n1 (stereo not drawn) [Compound 147]
32 | < 100 nM | > 75% | C=CCn1c(=O)c2cnc(Nc3ccc(N4CCC5(CC4)CCN(C4CN(c6ccc(NC7CCC(=O)NC7=O)cc6F)C4)CC5)cc3)nc2n1-c1ccc2c(n1)[C@@](O)(CC)CC2 (stereo partly drawn) [Compound 171]
33 | < 100 nM | > 75% | C=CCn1c(=O)c2cnc(Nc3ccc(N4CCN(CCCOc5ccc6c(c5)C(=O)N(C5CCC(=O)NC5=O)C6=O)CC4)cc3)nc2n1-c1cccc(C(C)(C)O)n1 (stereo not drawn) [Compound 62]
34 | < 100 nM | > 75% | C=CCn1c(=O)c2cnc(Nc3ccc(N4CCN(C5CCN(c6ccc(NC7CCC(=O)NC7=O)cc6F)CC5)CC4)cc3)nc2n1-c1ccc2c(n1)[C@@](O)(CC)CC2 (stereo partly drawn) [Compound 155]
35 | < 100 nM | > 75% | C=CCn1c(=O)c2cnc(Nc3ccc(N4CCC(CN5CCN(c6ccc(NC7CCC(=O)NC7=O)cc6F)CC5)CC4)c(C)c3)nc2n1-c1ccc2c(n1)[C@](C)(O)CC2 (stereo partly drawn) [Compound 132]
36 | < 100 nM | > 75% | C=CCn1c(=O)c2cnc(Nc3ccc(N4CCN(CC5CCN(c6ccc(NC7CCC(=O)NC7=O)cc6F)CC5)CC4)c(C)c3)nc2n1-c1ccc2c(n1)[C@@](C)(O)CC2 (stereo partly drawn) [Compound 131]
37 | < 100 nM | 50 to 75% | C=CCn1c(=O)c2cnc(Nc3ccc(N4CCC(N5CCN(c6ccc7c(c6)C(=O)N(C6CCC(=O)NC6=O)C7=O)CC5)CC4)cc3)nc2n1-c1cccc(C(C)(C)O)n1 (stereo not drawn) [Compound 77]
38 | < 100 nM | 50 to 75% | C=CCn1c(=O)c2cnc(Nc3ccc(N4CCC(CN5CCN(c6cc7c(cc6F)C(=O)N(C6CCC(=O)NC6=O)C7=O)CC5)CC4)cc3)nc2n1-c1cccc(C(C)(C)O)n1 (stereo not drawn) [Compound 57]
39 | < 100 nM | > 75% | C=CCn1c(=O)c2cnc(Nc3ccc(N4CCC(CN5CCN(c6ccc7c(N8CCC(=O)NC8=O)nn(C)c7c6)CC5)CC4)c(C)c3)nc2n1-c1ccc2c(n1)[C@@](O)(CC)CC2 [Compound 135]
40 | < 100 nM | 50 to 75% | C=CCn1c(=O)c2cnc(Nc3ccc(N4CCN(CC5CCN(Cc6cccc7c6n(C)c(=O)n7C6CCC(=O)NC6=O)CC5)CC4)cc3)nc2n1-c1cccc(C(C)(C)O)n1 (stereo not drawn) [Compound 64]
41 | < 100 nM | > 75% | C=CCn1c(=O)c2cnc(Nc3ccc(N4CCN(CC5CCN(c6ccc(NC7CCC(=O)NC7=O)cc6F)CC5)CC4)cc3)nc2n1-c1ccc2c(n1)[C@@](C)(O)CCC2 (single isomer, unassigned) [Compound 191]
42 | < 100 nM | > 75% | C=CCn1c(=O)c2cnc(Nc3ccc(N4CCN(CC5CCN(c6ccc(NC7CCC(=O)NC7=O)cc6F)CC5)CC4)cc3)nc2n1-c1cccc(C(C)(C)O)n1 (stereo not drawn) [Compound 102-A]
